Experimental data from patent US11472791B2 (Incyte Corporation, priority 2019, dated 2022).

Molecular target: CDK2/Cyclin E1 (Homo sapiens (Human), UniProt P24941)
Test: CDK2/Cyclin E1 HTRF enzyme activity assay
Format: biochemical
Conditions: 1 mM ATP
Method: Assays are conducted in white 384-well polystyrene plates in a final reaction volume of 8 μL. […] HTRF signals are read after 1 hour at room temperature on a PHERAstar FS plate reader (BMG Labtech). Data is analyzed with IDBS XLFit and GraphPad Prism 5.0 software using a three or four parameter dose response curve to determine IC50 for each compound.

Compound | IC50 [nM]
C[C@]1(NCc2ccc(-n3cc(-c4nc(N[C@H]5CCN(S(=O)(=O)C6CC6)C[C@H]5F)ncc4C#N)cn3)c(Cl)c2)C[C@H](O)C1 [Example 155, 4-(1-(2-chloro-4-((((1r,3r)-3-hydroxy-1-methylcyclobutyl)amino)methyl)phenyl)-1H-pyrazol-4-yl)-2-(((3R,4S)-1-(cyclopropylsulfonyl)-3-fluoropiperidin-4-yl)amino)pyrimidine-5-carbonitrile] | < 50
CC(C)(O)Cn1cc(-c2nc(NC3CCN(S(=O)(=O)CCCN4CCCC4)CC3)ncc2C#N)cn1 [Example 214, 4-(1-(2-Hydroxy-2-methylpropyl)-1H-pyrazol-4-yl)-2-((1-((3-(pyrrolidin-1-yl)propyl)sulfonyl)piperidin-4-yl)amino)pyrimidine-5-carbonitrile] | < 50
[2H]C([2H])([2H])NCc1ccc(-n2cc(-c3nc(NC4CCN(S(=O)(=O)c5ccn(C)n5)CC4)ncc3C#N)cn2)c(Cl)c1 [Example 142, 4-(1-(2-Chloro-4-(((methyl-d3)amino)methyl)phenyl)-1H-pyrazol-4-yl)-2-((1-((1-methyl-1H-pyrazol-3-yl)sulfonyl)piperidin-4-yl)amino)pyrimidine-5-carbonitrile] | < 50
CCN(CC)CCCS(=O)(=O)N1CC[C@H](Nc2ncc(C(F)(F)F)c(-c3cnn(CC(C)(C)O)c3)n2)[C@H](F)C1 [Example 202, 1-(4-(2-(((3R,4S)-1-((3-(Diethylamino)propyl)sulfonyl)-3-fluoropiperidin-4-yl)amino)-5-(trifluoromethyl)pyrimidin-4-yl)-1H-pyrazol-1-yl)-2-methylpropan-2-ol] | < 50
CCN1CCN(Cc2ccc(-n3cc(-c4nc(NC5CCN(S(=O)(=O)c6cn(C)cn6)CC5)ncc4Cl)cn3)c(C)c2)CC1 [Example 245, 5-Chloro-4-(1-(4-((4-ethylpiperazin-1-yl)methyl)-2-methylphenyl)-1H-pyrazol-4-yl)-N-(1-((1-methyl-1H-imidazol-4-yl)sulfonyl)piperidin-4-yl)pyrimidin-2-amine] | < 50
[2H]C([2H])([2H])NCc1ccc(-n2cc(-c3nc(NC4CCN(S(=O)(=O)CC)CC4)ncc3C#N)cn2)c(Cl)c1 [Example 139, 4-(1-(2-Chloro-4-(((methyl-d3)amino)methyl)phenyl)-1H-pyrazol-4-yl)-2((1-(ethylsulfonyl)piperidin-4-yl)amino)pyrimidine-5-carbonitrile] | < 50
CNCc1ccc(-n2cc(-c3nc(NC4CCN(S(=O)(=O)C5CC5)CC4)ncc3C#N)cn2)c(Cl)c1 [Example 114, 4-(1-(2-Chloro-4-((methylamino)methyl)phenyl)-1H-pyrazol-4-yl)-2-((1-(cyclopropylsulfonyl)piperidin-4-yl)amino)pyrimidine-5-carbonitrile] | < 50
CS(=O)(=O)N1CCC(Nc2ncc(C#N)c(-c3cnn(-c4ccc(CN[C@H]5CC[C@@H](S(C)(=O)=O)CC5)cc4Cl)c3)n2)CC1 [Example 185, 4-(1-(2-Chloro-4-((((cis)-4-(methylsulfonyl)cyclohexyl)amino)methyl)phenyl)-1H-pyrazol-4-yl)-2-((1-(methylsulfonyl)piperidin-4-yl)amino)pyrimidine-5-carbonitrile] | < 50
CN(C)CCCS(=O)(=O)N1CC[C@H](Nc2ncc(C(F)(F)F)c(-c3cnn(CC(C)(C)O)c3)n2)[C@H](F)C1 [Example 205, 1-(4-(2-(((3R,4S)-1-((3-(Dimethylamino)propyl)sulfonyl)-3-fluoropiperidin-4-yl)amino)-5-(trifluoromethyl)pyrimidin-4-yl)-1H-pyrazol-1-yl)-2-methylpropan-2-ol] | < 50

Further lines, results first:

IC50 [nM] | Compound
< 50 | Cc1cc(CN2CCN(C)CC2)ccc1-n1cc(-c2nc(NC3CCN(S(C)(=O)=O)CC3)ncc2C(F)(F)F)cn1 [Example 231, 4-(1-(2-Methyl-4-((4-methylpiperazin-1-yl)methyl)phenyl)-1H-pyrazol-4-yl)-N-(1-(methylsulfonyl)piperidin-4-yl)-5-(trifluoromethyl)pyrimidin-2-amine]
< 50 | Cc1cc(CN2CCN(C)[C@@H](CC#N)C2)ccc1-n1cc(-c2nc(NC3CCN(S(=O)(=O)c4cn(C)cn4)CC3)ncc2C(F)(F)F)cn1 [Example 230, (S)-2-(1-Methyl-4-(3-methyl-4-(4-(2-((1-((1-methyl-1H-imidazol-4-yl)sulfonyl)piperidin-4-yl)amino)-5-(trifluoromethyl)pyrimidin-4-yl)-1H-pyrazol-1-yl)benzyl)piperazin-2-yl)acetonitrile]
< 50 | Cc1c(-n2cc(-c3nc(NC4CCN(S(=O)(=O)c5cn(C)cn5)CC4)ncc3C(F)(F)F)cn2)ccnc1N [Example 35, 4-(1-(2-Amino-3-methylpyridin-4-yl)-1H-pyrazol-4-yl)-N-(1-((1-methyl-1H-imidazol-4-yl)sulfonyl)piperidin-4-yl)-5-(trifluoromethyl)pyrimidin-2-amine]
< 50 | Cc1nc(C(=O)N[C@]2(C)C[C@H](O)C2)ccc1-n1cc(-c2nc(NC3CCN(S(C)(=O)=O)CC3)ncc2C(F)(F)F)cn1 [Example 28, N-(cis-3-Hydroxy-1-methylcyclobutyl)-6-methyl-5-(4-(2-(1-(methylsulfonyl)piperidin-4-ylamino)-5-(trifluoromethyl)pyrimidin-4-yl)-1H-pyrazol-1-yl)picolinamide]
< 50 | Cc1nc(CNC(C)C)ccc1-n1cc(-c2nc(NC3CCN(S(=O)(=O)C4CC4)CC3)ncc2C#N)cn1 [Example 153, 2-((1-(Cyclopropylsulfonyl)piperidin-4-yl)amino)-4-(1-(6-((isopropylamino)methyl)-2-methylpyridin-3-yl)-1H-pyrazol-4-yl)pyrimidine-5-carbonitrile]
< 50 | COC(=O)NCC1(NCc2ccc(-n3cc(-c4nc(NC5CCN(S(C)(=O)=O)CC5)ncc4C#N)cn3)c(Cl)c2)CCCC1 [Example 282, Methyl ((1-((3-chloro-4-(4-(5-cyano-2-((1-(methylsulfonyl)piperidin-4-yl)amino)pyrimidin-4-yl)-1H-pyrazol-1-yl)benzyl)amino)cyclopentyl)methyl)carbamate]
< 50 | O=S(=O)(c1cn[nH]c1)N1CCC(Nc2ncc(C(F)(F)F)c(-c3cnn(CC(F)(F)F)c3)n2)CC1 [Example 2, N-(1-((1H-Pyrazol-4-yl)sulfonyl)piperidin-4-yl)-4-(1-(2,2,2-trifluoroethyl)-1H-pyrazol-4-yl)-5-(trifluoromethyl)pyrimidin-2-amine]
< 50 | C[C@]1(O)C[C@H](NCc2ccc(-n3cc(-c4nc(NC5CCN(S(=O)(=O)C6CC6)CC5)ncc4C#N)cn3)c(Cl)c2)C1 [Example 286, 4-(1-(2-Chloro-4-((((1r,3r)-3-hydroxy-3-methylcyclobutyl)amino)methyl)phenyl)-1H-pyrazol-4-yl)-2-((1-(cyclopropylsulfonyl)piperidin-4-yl)amino)pyrimidine-5-carbonitrile]
< 50 | CC(C)(O)Cn1cc(-c2nc(NC3CCN(S(C)(=O)=O)CC3)ncc2C(F)(F)F)cn1 [Example 52, 2-Methyl-1-(4-(2-((1-(methylsulfonyl)piperidin-4-yl)amino)-5-(trifluoromethyl)pyrimidin-4-yl)-1H-pyrazol-1-yl)propan-2-ol]
